What was measured:
[1] = test system: biofilm; test: Detection and removal of biofilm by batch or continuous injection of a biocide, seawater channels with ALVIM electrochemical biofilm probe; details: Mediterranean seawater; for biofilm probe signal after batch injection of biocide: batch injections at biofilm phases 900 mV, 1100 mV and 1200 mV, FIG. 3
Protocol: Tests of biofilm detection were carried out in a pilot plant continuously fed with Mediterranean seawater (2 m deep, 50 m from the coast). The experimental conditions are favorable to the biofilm growth: laminar flowing and coastal seawater rich in microorganisms and suspended solids (Silt Density Index SDI5min=10-18).
Tests were carried out in a tank divided in 6 parallel channels with equal dimensions (0.76 m-long, 0.1 m-deep and 0.07 m-wide per channel). Each channel was continuously fed with from 10 L/h to 40 L/h of seawater pre-filtered with a multimedia filter (40 μm). The speed of water flowing in the channels ranges from 0.0003 to 0.0013 m/s.
Several channels are equipped with an electrochemical biofilm sensor whose working electrode is immersed within the flowing water phase. The electrochemical biofilm sensor is provided by ALVIM Srl. This biofilm sensor is able to detect the electrochemical activity of a biofilm (Faimali et al., 2010 and Pavanello et al., 2011). This activity is proportional to the surface covered with biofilm. Thus, when a biofilm appears on the flat surface of the working electrode, the electrical signal transmitted by the device instantly increases. When the working electrode is immersed in seawater, its potential is stable (around 600 mV). Whenever the working electrode detects the biofilm, its potential increases and reaches a potential threshold which relate to a given maximum value of the probe (signal saturation).
The following experiment has been performed on two parallel channels of the tank. Each one is equipped with an ALVIM probe. Two biocides were tested: sodium hypochlorite (ClO^−Na^+) and rocideDB (DBNPA). Batch injections of biocides have been carried out at different development phases of the biofilm (900 mV, 1100 mV and 1200 mV) in order to evaluate the resistance of the biofilm as a function of its maturation time.

[2] = test system: biofilm; test: Biofilm growth upstream and downstream an ultrafiltration unit, with sodium hypochlorite injection; details: 2 ppm injected at pilot inlet, upstream of the ultrafiltration module; two injections; FIG. 5
Description: A second series of tests has been carried out to study the efficiency of inline monitoring upstream and downstream an ultrafiltration unit (pore size 10-50 nm). This type of porous membranes is considered as being able to retain all microorganisms present in natural water.
Ultrafiltration modules are used according to the set up represented at FIG. 4. The UF modules are continuously fed with pre-filtered Mediterranean seawater (40 μm multimedia filter F, 2 m deep, 50 m from the coast, laminar flowing, Silt Density Index SDI5min=10-18). The flow rates of the UF modules are: 3000-4000 L/h and the recovery is around 80%.
Two probes are positioned at the following locations of the pilot: • Probe 1: at the feedwater point of the ultrafiltration module (0.4-0.6 m/s);
Probe 2: downstream the ultrafiltration module (flowing velocity=0.3-0.5 m/s).
A dose of sodium hypochlorite is injected at various times during the experiment at the inlet of the pilot (upstream probe 1) as shown on FIG. 5.

Row | SMILES | biofilm probe signal after batch injection of biocide [1] | biofilm growth under continuous biocide injection ([1]; continuous injection of 1 mg/L) | signal of probe 1 (feedwater) after biocide injection [2]
1 | N#CC(Br)(Br)C(N)=O [DBNPA, 2,2-dibromo-3-nitrilopropionamide] | brings the signal back to the baseline |  | 
2 | OCl [sodium hypochlorite] | brings the signal back to the baseline | no biofilm growth was detected | goes down rapidly to the baseline
